In brackets after ≈: the same amount, converted by molar mass.
Experiments:
[1] = target: T1, UDP-3-O-acyl-N-acetylglucosamine deacetylase (Escherichia coli K-12, UniProt P0A725); assay: Inhibition of LpxC in Escherichia coli isolate 35 ATCC 25922; design: species or system Escherichia coli ATCC 25922
T1 sequence (P0A725 whole entry): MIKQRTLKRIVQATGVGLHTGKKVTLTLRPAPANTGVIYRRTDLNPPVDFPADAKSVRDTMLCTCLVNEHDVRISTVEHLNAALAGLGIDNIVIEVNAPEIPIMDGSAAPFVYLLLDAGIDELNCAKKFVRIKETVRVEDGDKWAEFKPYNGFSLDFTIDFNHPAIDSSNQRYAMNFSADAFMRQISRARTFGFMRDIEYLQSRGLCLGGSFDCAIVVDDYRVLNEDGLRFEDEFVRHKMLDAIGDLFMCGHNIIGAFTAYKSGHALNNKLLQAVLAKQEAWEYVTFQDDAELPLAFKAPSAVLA

Escherichia coli [2] = assay: Antibacterial activity against Escherichia coli isolate 35 ATCC 25922; format: functional
[3] = Inhibition of LpxC in Klebsiella pneumoniae isolate 21 ATCC 4352
[4] = target: T2, UDP-3-O-acyl-N-acetylglucosamine deacetylase (Pseudomonas aeruginosa (strain ATCC 15692 / PAO1 / 1C / PRS 101 / LMG12228), UniProt P47205); assay: Inhibition of LpxC in Pseudomonas aeruginosa isolate 44 ATCC 27853
T2 sequence (P47205 whole entry): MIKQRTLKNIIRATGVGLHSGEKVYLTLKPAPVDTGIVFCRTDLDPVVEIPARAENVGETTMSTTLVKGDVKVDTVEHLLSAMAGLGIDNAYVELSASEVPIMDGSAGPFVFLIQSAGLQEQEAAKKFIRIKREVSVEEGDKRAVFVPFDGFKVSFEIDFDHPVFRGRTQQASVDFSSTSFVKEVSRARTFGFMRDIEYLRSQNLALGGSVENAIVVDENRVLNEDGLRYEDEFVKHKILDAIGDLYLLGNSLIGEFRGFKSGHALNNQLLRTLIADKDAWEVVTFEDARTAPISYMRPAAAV

Pseudomonas aeruginosa [5] = assay: Antibacterial activity against Pseudomonas aeruginosa isolate 44 ATCC 27853; format: functional
Pseudomonas aeruginosa [6] = assay: Antibacterial activity against Pseudomonas aeruginosa isolate 847; format: functional
Pseudomonas aeruginosa [7] = assay: Antibacterial activity against Pseudomonas aeruginosa isolate 839 harboring mexAB-oprM deletion mutant; format: functional
[8] = target: T2, UDP-3-O-acyl-N-acetylglucosamine deacetylase; assay: Inhibition of LpxC in Pseudomonas aeruginosa isolate 847
Klebsiella pneumoniae [9] = assay: Antibacterial activity against Klebsiella pneumoniae isolate 21 ATCC 4352; format: functional
[10] = Fraction unbound in rat plasma at 10 uM by equilibrium dialysis method; format: ADME, cell-free
[11] = Fraction unbound in mouse plasma at 10 uM by equilibrium dialysis method; format: ADME, cell-free
[12] = Fraction unbound in cynomolgus monkey plasma at 10 uM by equilibrium dialysis method; format: ADME, cell-free, Macaca fascicularis
[13] = Fraction unbound in human plasma at 10 uM by equilibrium dialysis method; format: ADME, cell-free
Rattus norvegicus [14] = assay: Dose normalized AUC in rat at 10 mg/kg, iv; format: ADME, organism-based; conditions: in vivo
Mus musculus [15] = assay: Dose normalized AUC in mouse at 2 mg/kg, iv; format: ADME, organism-based; conditions: in vivo
Mus musculus [16] = assay: Dose normalized AUC in mouse at 10 mg/kg, sc; format: ADME, organism-based; conditions: in vivo
Cynomolgus monkey = assay: Dose normalized AUC in cynomolgus monkey at 10 mg/kg, iv; format: ADME, organism-based, Macaca fascicularis; conditions: in vivo
[17] = Volume of distribution at steady state in rat at 10 mg/kg, iv; format: ADME, organism-based; conditions: in vivo, read-out: Vdss
[18] = Volume of distribution at steady state in mouse at 2 mg/kg, iv; format: ADME, organism-based; conditions: in vivo, read-out: Vdss
[19] = Volume of distribution at steady state in cynomolgus monkey at 10 mg/kg, iv; format: ADME, organism-based, Macaca fascicularis; conditions: in vivo, read-out: Vdss
[20] = Half life in rat at 10 mg/kg, iv; format: ADME, organism-based; conditions: in vivo
[21] = Half life in mouse at 2 mg/kg, iv; format: ADME, organism-based; conditions: in vivo
[22] = Half life in mouse at 10 mg/kg, sc; format: ADME, organism-based; conditions: in vivo
[23] = Half life in cynomolgus monkey at 10 mg/kg, iv; format: ADME, organism-based, Macaca fascicularis; conditions: in vivo
[24] = Clearance in rat at 10 mg/kg, iv; format: ADME, organism-based; conditions: in vivo
[25] = Clearance in mouse at 2 mg/kg, iv; format: ADME, organism-based; conditions: in vivo
[26] = Clearance in mouse at 10 mg/kg, sc; format: ADME, organism-based; conditions: in vivo
[27] = Clearance in cynomolgus monkey at 10 mg/kg, iv; format: ADME, organism-based, Macaca fascicularis; conditions: in vivo
[28] = Bioavailability in mouse at 10 mg/kg, sc; format: ADME, organism-based; conditions: in vivo
Escherichia coli [29] = assay: Antibacterial activity against Escherichia coli assessed as 2 log reduction in bladder bacterial burden in in-vivo urinary tract infection model; format: functional
Klebsiella pneumoniae [30] = assay: Antibacterial activity against Klebsiella pneumoniae assessed as 3 log reduction in lung bacterial burden in in-vivo lung infection model; format: functional
Pseudomonas aeruginosa [31] = assay: Antibacterial activity against Pseudomonas aeruginosa assessed as reduction in bacterial burden in in-vivo blood infection septicemia model; format: functional; conditions: read-out: PD50
Pseudomonas aeruginosa [32] = assay: Antibacterial activity against Pseudomonas aeruginosa assessed as 3-log reduction in bacterial burden in in-vivo thigh infection model; format: functional
Pseudomonas aeruginosa [33] = assay: Antibacterial activity against Pseudomonas aeruginosa assessed as 3-log reduction in bacterial burden in in-vivo lung infection model; format: functional
[34] = Aqueous solubility of the compound in pH 7.4 buffer; format: physicochemical
Rattus norvegicus [35] = assay: Acute toxicity in rat at 75 mg/kg using Tween-80 formulation; format: organism-based; conditions: in vivo
Rattus norvegicus [36] = assay: Acute toxicity in rat at 200 mg/kg using capsitol capsulated formulation; format: organism-based; conditions: in vivo
Rattus norvegicus [37] = assay: Toxicity in rat at 100 mg/kg, iv administered as bolus dose using 10% capsitol formulation for 7 days; format: organism-based; conditions: in vivo, 168 h
Rattus norvegicus [38] = species on record: Rattus norvegicus; assay: Displacement of sodium channel site 2 in [3H]Batrachotoxinin from Wistar rat brain membranes at 25 uM after 60 mins relative to control; conditions: Membrane
[39] = Displacement of sodium channel site 2 in [3H]Batrachotoxinin from Wistar rat brain membranes after 60 mins; design: species or system Membrane
[40] = target: T3, Muscarinic acetylcholine receptor M2 (Homo sapiens) (UniProt P08172); assay: Antagonist activity at muscarinic M2 receptor (unknown origin) at 25 uM relative to control
T3 sequence (whole entry): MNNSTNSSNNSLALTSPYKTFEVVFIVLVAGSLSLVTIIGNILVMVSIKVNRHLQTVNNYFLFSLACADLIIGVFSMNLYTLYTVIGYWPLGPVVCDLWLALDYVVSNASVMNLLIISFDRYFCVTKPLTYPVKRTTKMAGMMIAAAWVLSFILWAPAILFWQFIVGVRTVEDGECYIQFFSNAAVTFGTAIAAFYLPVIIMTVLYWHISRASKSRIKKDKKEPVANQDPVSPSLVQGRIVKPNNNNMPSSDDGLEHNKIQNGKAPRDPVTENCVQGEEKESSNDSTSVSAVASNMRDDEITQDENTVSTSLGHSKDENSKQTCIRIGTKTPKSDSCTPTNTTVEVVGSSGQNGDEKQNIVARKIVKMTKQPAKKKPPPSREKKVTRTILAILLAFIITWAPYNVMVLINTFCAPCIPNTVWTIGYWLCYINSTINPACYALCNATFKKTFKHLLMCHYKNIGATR

[41] = target: Sigma intracellular receptor 2 (Homo sapiens) (UniProt Q5BJF2); assay: Antagonist activity at sigma2 receptor (unknown origin) at 25 uM relative to control
Sequence of Sigma intracellular receptor 2 (Homo sapiens) (Q5BJF2 whole entry): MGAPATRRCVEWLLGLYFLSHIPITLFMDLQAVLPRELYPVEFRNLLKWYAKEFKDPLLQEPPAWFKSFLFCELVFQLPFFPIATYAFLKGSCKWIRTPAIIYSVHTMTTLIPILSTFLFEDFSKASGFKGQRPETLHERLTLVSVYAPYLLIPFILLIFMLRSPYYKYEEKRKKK

## C[C@@H](O)[C@H](N[C@H]1CCc2cc(C#Cc3ccc(Cn4ccnc4CCO)cc3)ccc21)C(=O)NO
[1]
  IC50: 5 nM
Escherichia coli [2]
  MIC: 1 µg/mL (≈ 2.11 µM)
[3]
  IC50: 3 nM
[4]
  IC50: 5 nM
Pseudomonas aeruginosa [5]
  MIC: 4 µg/mL (≈ 8.43 µM)
Pseudomonas aeruginosa [6]
  MIC: 4 µg/mL (≈ 8.43 µM)
Pseudomonas aeruginosa [7]
  MIC: 0.125 µg/mL (≈ 0.263 µM)

## CC(C)(N)[C@H](N[C@H]1CCc2cc(C#Cc3ccc(CN4CCOCC4)cc3)ccc21)C(=O)NO
[1]
  IC50: 2 nM
Escherichia coli [2]
  MIC: 0.5 µg/mL (≈ 1.08 µM)
[4]
  IC50: 6 nM
Pseudomonas aeruginosa [5]
  MIC: 4 µg/mL (≈ 8.65 µM)
Pseudomonas aeruginosa [6]
  MIC: 0.5 µg/mL (≈ 1.08 µM)
[8]
  IC50: 1 nM
Pseudomonas aeruginosa [7]
  MIC: 0.25 µg/mL (≈ 0.54 µM)

## CC(C)(O)[C@H](N[C@H]1CCc2cc(C#Cc3ccc(CN4CCN(CCO)CC4)cc3)ccc21)C(=O)NO
[1]
  IC50: 41 nM
Escherichia coli [2]
  MIC: 4 µg/mL (≈ 7.9 µM)
[4]
  IC50: 14 nM
Pseudomonas aeruginosa [5]
  MIC: 4 µg/mL (≈ 7.9 µM)
Pseudomonas aeruginosa [6]
  MIC: 32 µg/mL (≈ 63.2 µM)
Pseudomonas aeruginosa [7]
  MIC: 0.5 µg/mL (≈ 0.987 µM)

## CC(C)(O)[C@H](N[C@H]1CCc2cc(C#Cc3ccc(CN4CCOCC4)cc3)ccc21)C(=O)NO
[1]
  IC50: 1 nM
Escherichia coli [2]
  MIC: 0.25 µg/mL (≈ 0.539 µM)
Klebsiella pneumoniae [9]
  MIC: < 0.03 µg/mL
[4]
  IC50: 3 nM
Pseudomonas aeruginosa [5]
  MIC: 32 µg/mL (≈ 69 µM)
[8]
  IC50: 0.4 nM
Pseudomonas aeruginosa [7]
  MIC: 0.25 µg/mL (≈ 0.539 µM)

## CC(C)(N)[C@H](N[C@H]1CCc2cc(C#Cc3ccc(Cn4ccnc4CO)cc3)ccc21)C(=O)NO
[1]
  IC50: 4 nM
Escherichia coli [2]
  MIC: 0.5 to 1 µg/mL (≈ 1.06 to 2.11 µM)
  MIC90: 1 µg/mL (≈ 2.11 µM)
Klebsiella pneumoniae [9]
  MIC: 0.125 µg/mL (≈ 0.264 µM)
  MIC90: 8 µg/mL (≈ 16.9 µM)
[4]
  IC50: 4 nM
Pseudomonas aeruginosa [5]
  MIC: 1 µg/mL (≈ 2.11 µM)
  MIC90: 4 µg/mL (≈ 8.45 µM)
Pseudomonas aeruginosa [6]
  MIC: 4 µg/mL (≈ 8.45 µM)
[8]
  IC50: 2 nM
Pseudomonas aeruginosa [7]
  MIC: 0.125 µg/mL (≈ 0.264 µM)
[10]
  fraction unbound at 10 µM: 0.05
[11]
  fraction unbound at 10 µM: 0.067
[12]
  fraction unbound at 10 µM: 0.047
[13]
  fraction unbound at 10 µM: 0.06
Rattus norvegicus [14]
  AUC/dose: 1.07 µg·h/mL/mg/kg
Mus musculus [15]
  AUC/dose: 0.95 µg·h/mL/mg/kg
Mus musculus [16]
  AUC/dose: 0.7 µg·h/mL/mg/kg
Cynomolgus monkey
  AUC/dose: 4.07 µg·h/mL/mg/kg
[17]
  Vd: 0.68 L/kg
[18]
  Vd: 0.4 L/kg
[19]
  Vd: 0.38 L/kg
[20]
  half-life: 1.87 h
[21]
  half-life: 1.7 h
[22]
  half-life: 1.2 h
[23]
  half-life: 6.54 h
[24]
  clearance: 15.6 mL/min/kg
[25]
  clearance: 17.5 mL/min/kg
[26]
  CL/F: 24.4 mL/min/kg
[27]
  clearance: 4.39 mL/min/kg
[28]
  bioavailability: 74%
Escherichia coli [29]
  ED: 15.1 mg/kg
Klebsiella pneumoniae [30]
  ED: 2.7 mg/kg
Pseudomonas aeruginosa [31]
  ED50: 13 mg/kg
Pseudomonas aeruginosa [32]
  ED: 25 mg/kg
Pseudomonas aeruginosa [33]
  ED: 32 mg/kg
[34]
  solubility: 850 µg/mL (≈ 1790 µM)
Rattus norvegicus [35]
  Activity: Toxic
Rattus norvegicus [36]
  Activity: Non-Toxic
Rattus norvegicus [37]
  Activity: Non-Toxic
Rattus norvegicus [38]
  inhibition: 97%
[39]
  IC50: 400 nM
[40]
  inhibition: > 50%
[41]
  inhibition: > 50%

Reference: ChEMBL document CHEMBL4049409, “Structure-based discovery of LpxC inhibitors” (Bioorg Med Chem Lett, 2017)
